# Assays:
# HEK293 cells = test: MTT cytotoxicity assay, HEK293; format: cell-based; conditions: Homo sapiens, 24 h exposure, mean ± SD, three biological replicates
# Excerpt: The human cell lines TK10 (human kidney adenocarcinoma), UACC62 (human melanoma) and MCF7 (human breast adenocarcinoma) were obtained from the National Cancer Institute (NCI) as part of a panel widely studied for drug screening and molecular target identification. Melanoma (A375) and human embryonic kidney (HEK293) were acquired from the American Type Culture Collection; ATCC® CRL-1619™ and ATCC® CRL-1573™ respectively. The nontumorigenic human immortalized keratinocyte (HaCaT) cells were a kind donation by the School of Anatomical Sciences, Faculty of Health Sciences, University of the Witwatersrand, South Africa. HaCaT cells were chosen as the nonmalignant control due to their ease of propagation, near normal phenotype and general use as an A375 control ([Dwivedi et al., 2015]; [Lewies et al., 2018]). The A375 cell line is a […] cells line with the BRAF mutation frequently used for in vitro drug screening assays for anti-melanoma drugs ([Couto et al., 2019]). All reagents were of analytical grade and were obtained from Merck (Darmstadt, Germany) unless stated otherwise. Cells were cultured in Dulbecco’s modified essential medium (DMEM; Hyclone, GE healthcare, South Logan, UT, USA) containing 10% fetal bovine serum (FBS), 1% penicillin/streptomycin, 1% 200 mM L-Glutamine and 1% nonessential amino acids (Lonza, Basel, Switzerland) at 37°C in a humidified atmosphere of 5% CO2. […]
# The growth inhibitory effects of the compounds were tested in the 3-cell line panel consisting of TK10 (renal), UACC62 (melanoma) and MCF7 (breast) cancer cells by Sulforhodamine B (SRB) assay. In addition, activity was also evaluated against HEK293 cells with the 3-(4,5-dimethylthiazol-2-yl)-2,5-diphenyl tetrazolium bromide (MTT) assay ([Mosmann, 1983]). […] The results were expressed as half maximal inhibitory concentrations (IC50) as described before ([Lewies et al., 2018]). […] After incubation, cell viability was determined using a microplate reader (BioTek®, Vermont, USA) at an excitation wavelength of 560 nm and emission wavelength of 630 nm with DMSO measured as a blank. Cell viability was expressed as a percentage relative to the untreated control, which is assumed to be 100% viable. […] Using the MTT assay data, IC50 values were calculated using GraphPad Prism 8. […] The curve was fitted using the log(inhibitor) vs. response function and the IC50 values calculated ([Lewies et al., 2018]). A crude therapeutic index (fold decrease in IC50 value) was calculated as the IC50 of the noncancerous cell-line/IC50 of the cancerous cell line. […] Drug interactions were evaluated for synergism, additivity or antagonism using multiple drug effect analysis, based on the median-principle. Cells were treated with the drug combinations for 24 h and analyzed. […]
# [1] = system: HaCat normal keratinocytes; test: LDH release membrane integrity assay, HaCat; conditions: compounds at their IC50 concentrations, 24 h; combinations 1:1; relative to maximum release
# Excerpt: In order to determine cell membrane integrity, the CytoTox-ONE™ Homogeneous Membrane Integrity Assay (Promega, Madison, WO, USA) was employed. This fluorometric assay measures the release of LDH from cells with damaged cell membranes. […] The manufacturer’s instructions were followed to determine the fluorescence at an excitation wavelength of 560 nm and an emission wavelength of 590 nm. In order to calculate the percentage cytotoxicity, the average fluorescent values of the background medium were subtracted from all average fluorescent values of the experimental samples and the positive control. Cytotoxicity is expressed as a percentage relative to the positive control, which is assumed to be responsible for 100% LDH release. The fold increase in LDH release was taken as the indication of the selectivity toward melanoma cell membranes, calculated as the […]. All experiments were performed at least in triplicate and independently repeated. Statistical significant differences were calculated with one-way ANOVA.
# Results are expressed relative to the untreated control and the maximum release sample, which was set as having 0% and 100% LDH release respectively. The LDH released from the nonmalignant HaCat cells and the A375 melanoma cells was then used to deduce the selectivity of the compounds against melanoma cell membranes.
# [2] = system: MCF-7 breast cancer cells; test: Sulforhodamine B (SRB) growth inhibition assay, MCF7; format: cell-based; conditions: Homo sapiens, mean ± SD
# Excerpt: The human cell lines TK10 (human kidney adenocarcinoma), UACC62 (human melanoma) and MCF7 (human breast adenocarcinoma) were obtained from the National Cancer Institute (NCI) as part of a panel widely studied for drug screening and molecular target identification. Melanoma (A375) and human embryonic kidney (HEK293) were acquired from the American Type Culture Collection; ATCC® CRL-1619™ and ATCC® CRL-1573™ respectively. The nontumorigenic human immortalized keratinocyte (HaCaT) cells were a kind donation by the School of Anatomical Sciences, Faculty of Health Sciences, University of the Witwatersrand, South Africa. […]
# The growth inhibitory effects of the compounds were tested in the 3-cell line panel consisting of TK10 (renal), UACC62 (melanoma) and MCF7 (breast) cancer cells by Sulforhodamine B (SRB) assay. In addition, activity was also evaluated against HEK293 cells with the 3-(4,5-dimethylthiazol-2-yl)-2,5-diphenyl tetrazolium bromide (MTT) assay ([Mosmann, 1983]). […] The results were expressed as half maximal inhibitory concentrations (IC50) as described before ([Lewies et al., 2018]). […] After incubation, cell viability was determined using a microplate reader (BioTek®, Vermont, USA) at an excitation wavelength of 560 nm and emission wavelength of 630 nm with DMSO measured as a blank. […] Using the MTT assay data, IC50 values were calculated using GraphPad Prism 8. […]
Structure (SMILES),IC50 (HEK293 cells) [µM],HaCat (% LDH release) [1] [%],IC50 [2] [nM]
"CC(C)=CCC/C(C)=C/CN1CCN([C@@H]2O[C@@H]3O[C@@]4(C)CC[C@H]5[C@H](C)CC[C@@H]([C@H]2C)[C@@]35OO4)CC1 [Geranylpiperazine-DHA 6, geranylpiperazine-DHA]",24.3 ± 1.15,17 ± 0.95,–
"C[C@@H]1CC[C@H]2[C@@H](C)C(=O)O[C@@H]3O[C@@]4(C)CC[C@@H]1[C@]32OO4 [Artemisinin 2, artemisinin]",120.7 ± 1.07,18 ± 0.84,–
"C[C@H]1[C@H](N2CCS(=O)(=O)CC2)O[C@@H]2O[C@@]3(C)CC[C@H]4[C@H](C)CC[C@@H]1[C@@]24OO3 [Artemisone 4, artemisone]",86.7 ± 1.09,19 ± 0.79,2750 ± 790
"CC(C)=CCC/C(C)=C/CC/C(C)=C/CN1CCN([C@@H]2O[C@@H]3O[C@@]4(C)CC[C@H]5[C@H](C)CC[C@@H]([C@H]2C)[C@@]35OO4)CC1 [Farnesylpiperazine-DHA 7, farnesylpiperazine-DHA]",35.5 ± 1.09,18 ± 0.67,1560 ± 510

# — paper PMC7552967, “Anti-Melanoma Activities of Artemisone and Prenylated Amino-Artemisinins in Combination With Known Anticancer Drugs” (Frontiers in Pharmacology, 2020)
